Assay results: paper PMC4648050, “Discovery of Inhibitors of Trypanosoma brucei by Phenotypic Screening of a Focused Protein Kinase Library” (Chemmedchem, 2015)

Key:
Assay type in all cases: biochemical, human/mammalian
Conditions in all cases: compound at 10 μM, read-out: % of activity respect of the control
GSK3b = GSK3b (Homo sapiens, UniProt P49841); assay: Kinase panel: GSK3b
Description: (§1) The DDU kinase-focused compound set contains lead-like scaffolds that are designed to target protein kinases; they have kinase hinge binding motifs. Four of the 1H-imidazopyrazinones were screened against a human/mammalian kinase panel at the University of Dundee (http://www.kinase-screen.mrc.ac.uk) at a concentration of 10 μM. At the time of testing the panel contained 79 mammalian kinases selected to provide a broad coverage of the mammalian kinome (∼500 kinases in the human genome).[3] None of the compounds were active against any of the kinases at 10 μM.

HIPK2 = HIPK2 (Homo sapiens, UniProt Q9H2X6); assay: Kinase panel: HIPK2
Description: as §1

BRSK2 = target: T1, BRSK2 (Homo sapiens, UniProt Q8IWQ3); assay: Kinase panel: BRSK2
T1 sequence (Q8IWQ3 1-736): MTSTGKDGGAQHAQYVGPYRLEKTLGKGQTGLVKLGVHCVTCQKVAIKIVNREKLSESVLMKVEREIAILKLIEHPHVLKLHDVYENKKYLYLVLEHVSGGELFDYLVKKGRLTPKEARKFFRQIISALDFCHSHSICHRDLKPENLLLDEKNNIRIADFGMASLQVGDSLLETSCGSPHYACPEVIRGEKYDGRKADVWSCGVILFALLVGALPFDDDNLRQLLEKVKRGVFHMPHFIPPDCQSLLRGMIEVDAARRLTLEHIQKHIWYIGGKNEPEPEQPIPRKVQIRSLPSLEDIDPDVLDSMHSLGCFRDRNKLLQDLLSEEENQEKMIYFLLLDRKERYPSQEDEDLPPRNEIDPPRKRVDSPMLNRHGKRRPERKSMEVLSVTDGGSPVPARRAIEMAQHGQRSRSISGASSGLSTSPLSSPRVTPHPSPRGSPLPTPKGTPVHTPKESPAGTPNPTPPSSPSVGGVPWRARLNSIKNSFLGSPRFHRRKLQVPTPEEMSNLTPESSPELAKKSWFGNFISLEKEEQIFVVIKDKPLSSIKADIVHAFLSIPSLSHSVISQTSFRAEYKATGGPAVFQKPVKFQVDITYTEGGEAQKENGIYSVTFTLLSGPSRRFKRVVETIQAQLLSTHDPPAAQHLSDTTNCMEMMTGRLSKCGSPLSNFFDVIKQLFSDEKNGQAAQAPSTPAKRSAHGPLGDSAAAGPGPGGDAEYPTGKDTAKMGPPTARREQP
Description: as §1

BTK = BTK (Homo sapiens, UniProt Q06187); assay: Kinase panel: BTK
Description: as §1

DYRK1A = DYRK1A (Homo sapiens, UniProt Q13627); assay: Kinase panel: DYRK1A
Description: as §1

JNK1 = JNK1 (Homo sapiens, UniProt P45983); assay: Kinase panel: JNK1
Description: as §1

PAK5 = PAK5 (Homo sapiens, UniProt Q9P286); assay: Kinase panel: PAK5
Description: as §1

PKC zeta = target: T2, PKC zeta (Homo sapiens, UniProt Q05513); assay: Kinase panel: PKC zeta
T2 sequence (Q05513 1-592): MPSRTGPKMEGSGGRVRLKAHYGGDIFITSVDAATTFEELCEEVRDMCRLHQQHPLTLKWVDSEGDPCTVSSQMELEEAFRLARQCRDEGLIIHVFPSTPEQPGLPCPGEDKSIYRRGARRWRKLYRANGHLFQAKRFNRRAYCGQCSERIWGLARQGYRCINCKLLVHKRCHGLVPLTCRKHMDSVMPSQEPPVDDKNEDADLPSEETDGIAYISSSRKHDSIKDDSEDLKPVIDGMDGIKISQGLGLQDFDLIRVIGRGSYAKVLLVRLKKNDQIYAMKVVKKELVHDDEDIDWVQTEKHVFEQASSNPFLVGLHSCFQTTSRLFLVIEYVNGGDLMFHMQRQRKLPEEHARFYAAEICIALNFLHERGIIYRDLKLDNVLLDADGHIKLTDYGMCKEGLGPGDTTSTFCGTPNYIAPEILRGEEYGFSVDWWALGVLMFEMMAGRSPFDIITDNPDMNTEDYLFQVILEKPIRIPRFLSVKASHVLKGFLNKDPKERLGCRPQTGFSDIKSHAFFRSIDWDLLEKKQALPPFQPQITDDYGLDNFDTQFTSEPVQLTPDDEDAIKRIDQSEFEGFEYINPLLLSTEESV
Description: as §1

ERK8 = target: T3, ERK8 (Homo sapiens, UniProt Q8TD08); assay: Kinase panel: ERK8
T3 sequence (Q8TD08 1-544): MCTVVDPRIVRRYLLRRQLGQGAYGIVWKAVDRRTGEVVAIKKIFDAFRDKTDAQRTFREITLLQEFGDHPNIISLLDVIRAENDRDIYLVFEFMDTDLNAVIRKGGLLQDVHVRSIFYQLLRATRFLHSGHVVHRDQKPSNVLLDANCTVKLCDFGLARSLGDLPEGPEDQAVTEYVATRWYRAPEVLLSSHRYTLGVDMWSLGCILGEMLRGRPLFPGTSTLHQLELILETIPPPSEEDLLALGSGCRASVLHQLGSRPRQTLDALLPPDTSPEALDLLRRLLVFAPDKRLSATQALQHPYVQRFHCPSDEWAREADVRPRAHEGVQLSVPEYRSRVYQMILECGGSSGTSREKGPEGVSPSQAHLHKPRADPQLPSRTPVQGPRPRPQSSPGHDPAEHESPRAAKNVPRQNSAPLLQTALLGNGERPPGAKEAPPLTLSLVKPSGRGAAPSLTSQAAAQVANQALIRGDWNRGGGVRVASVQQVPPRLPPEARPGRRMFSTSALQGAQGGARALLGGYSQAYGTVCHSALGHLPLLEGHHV
Description: as §1

PLK1 = PLK1 (Homo sapiens, UniProt P53350); assay: Kinase panel: PLK1
Description: as §1

PKA = PKA (Homo sapiens, UniProt P17612); assay: Kinase panel: PKA
Description: as §1

SmMLCK = SmMLCK (Homo sapiens, UniProt Q15746); assay: Kinase panel: SmMLCK
Description: as §1

CDK2-Cyclin A = CDK2-Cyclin A (Homo sapiens, UniProt P24941); assay: Kinase panel: CDK2-Cyclin A
Description: as §1

S6K1 = S6K1 (Homo sapiens, UniProt P23443); assay: Kinase panel: S6K1
Description: as §1

Sequence of SmMLCK (Q15746 923-1914): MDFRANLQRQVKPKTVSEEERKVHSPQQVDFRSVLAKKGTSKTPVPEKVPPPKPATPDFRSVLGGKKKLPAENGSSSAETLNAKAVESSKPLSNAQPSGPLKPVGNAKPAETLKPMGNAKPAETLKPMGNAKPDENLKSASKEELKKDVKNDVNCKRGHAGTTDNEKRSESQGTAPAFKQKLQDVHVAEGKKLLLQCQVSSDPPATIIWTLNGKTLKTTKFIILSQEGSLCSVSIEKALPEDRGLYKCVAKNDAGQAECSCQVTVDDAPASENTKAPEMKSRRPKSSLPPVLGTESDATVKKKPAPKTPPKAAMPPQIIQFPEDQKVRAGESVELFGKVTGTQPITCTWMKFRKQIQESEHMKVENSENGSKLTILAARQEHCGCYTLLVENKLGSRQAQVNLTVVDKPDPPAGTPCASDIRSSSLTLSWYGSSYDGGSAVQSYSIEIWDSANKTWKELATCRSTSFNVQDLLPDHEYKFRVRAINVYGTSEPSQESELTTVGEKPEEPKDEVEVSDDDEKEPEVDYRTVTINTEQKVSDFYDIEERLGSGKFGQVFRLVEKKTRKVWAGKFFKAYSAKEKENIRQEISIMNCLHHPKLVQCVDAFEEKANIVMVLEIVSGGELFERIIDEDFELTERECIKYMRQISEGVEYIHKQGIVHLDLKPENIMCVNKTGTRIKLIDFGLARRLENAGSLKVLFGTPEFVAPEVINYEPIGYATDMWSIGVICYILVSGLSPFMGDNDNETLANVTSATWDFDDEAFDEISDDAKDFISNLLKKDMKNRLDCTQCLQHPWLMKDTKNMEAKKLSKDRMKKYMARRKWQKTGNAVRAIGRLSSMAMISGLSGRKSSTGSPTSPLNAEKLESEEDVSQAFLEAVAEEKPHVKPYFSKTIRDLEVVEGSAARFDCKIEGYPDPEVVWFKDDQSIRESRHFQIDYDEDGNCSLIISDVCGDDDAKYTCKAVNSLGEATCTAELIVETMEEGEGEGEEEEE
Sequence of BTK (Q06187 whole entry): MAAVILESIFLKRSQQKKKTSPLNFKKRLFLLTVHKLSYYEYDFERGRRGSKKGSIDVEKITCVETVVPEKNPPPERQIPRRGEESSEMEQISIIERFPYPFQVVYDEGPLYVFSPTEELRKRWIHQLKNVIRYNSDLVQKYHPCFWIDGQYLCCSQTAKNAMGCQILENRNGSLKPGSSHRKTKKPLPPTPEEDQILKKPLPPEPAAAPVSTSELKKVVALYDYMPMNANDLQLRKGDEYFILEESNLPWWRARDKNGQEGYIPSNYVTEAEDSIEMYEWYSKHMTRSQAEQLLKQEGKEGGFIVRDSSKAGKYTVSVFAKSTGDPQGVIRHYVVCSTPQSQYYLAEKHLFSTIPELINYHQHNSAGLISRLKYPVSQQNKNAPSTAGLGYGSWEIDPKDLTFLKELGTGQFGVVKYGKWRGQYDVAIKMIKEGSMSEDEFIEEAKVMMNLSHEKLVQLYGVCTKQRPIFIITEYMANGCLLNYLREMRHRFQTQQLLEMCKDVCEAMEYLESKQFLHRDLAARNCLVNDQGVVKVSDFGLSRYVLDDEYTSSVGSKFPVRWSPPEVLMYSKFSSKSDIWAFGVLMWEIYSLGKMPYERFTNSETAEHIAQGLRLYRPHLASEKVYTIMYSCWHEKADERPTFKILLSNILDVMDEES
Sequence of GSK3b (P49841 whole entry): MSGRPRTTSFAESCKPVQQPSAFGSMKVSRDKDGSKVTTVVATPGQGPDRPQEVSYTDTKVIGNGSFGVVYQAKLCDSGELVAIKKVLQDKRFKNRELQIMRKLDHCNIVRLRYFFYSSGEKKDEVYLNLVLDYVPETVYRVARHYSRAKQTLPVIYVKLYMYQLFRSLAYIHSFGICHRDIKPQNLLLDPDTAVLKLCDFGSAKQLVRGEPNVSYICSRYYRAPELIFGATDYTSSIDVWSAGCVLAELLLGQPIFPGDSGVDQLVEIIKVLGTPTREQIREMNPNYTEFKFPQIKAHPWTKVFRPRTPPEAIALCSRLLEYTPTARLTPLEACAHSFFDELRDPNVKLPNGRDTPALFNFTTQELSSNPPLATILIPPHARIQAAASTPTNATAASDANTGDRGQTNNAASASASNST
Sequence of PAK5 (Q9P286 whole entry): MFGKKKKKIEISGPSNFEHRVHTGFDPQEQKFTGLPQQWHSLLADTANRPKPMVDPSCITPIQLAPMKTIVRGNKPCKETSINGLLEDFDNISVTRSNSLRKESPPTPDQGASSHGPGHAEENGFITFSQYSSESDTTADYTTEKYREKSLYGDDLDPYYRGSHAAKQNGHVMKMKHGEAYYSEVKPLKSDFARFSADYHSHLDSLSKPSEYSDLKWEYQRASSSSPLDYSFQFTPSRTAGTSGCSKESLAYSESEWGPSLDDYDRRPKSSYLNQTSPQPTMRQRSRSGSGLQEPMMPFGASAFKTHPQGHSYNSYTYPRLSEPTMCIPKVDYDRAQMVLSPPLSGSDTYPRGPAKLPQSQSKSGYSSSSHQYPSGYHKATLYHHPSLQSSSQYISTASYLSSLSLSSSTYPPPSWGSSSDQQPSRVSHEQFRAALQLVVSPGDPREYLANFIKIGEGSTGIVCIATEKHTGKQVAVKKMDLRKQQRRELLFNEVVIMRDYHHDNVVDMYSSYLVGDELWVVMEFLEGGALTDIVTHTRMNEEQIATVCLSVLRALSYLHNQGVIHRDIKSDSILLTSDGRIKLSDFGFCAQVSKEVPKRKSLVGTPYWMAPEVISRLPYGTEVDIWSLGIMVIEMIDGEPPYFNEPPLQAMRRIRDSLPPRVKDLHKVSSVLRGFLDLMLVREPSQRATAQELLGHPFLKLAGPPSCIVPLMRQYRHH
Sequence of HIPK2 (Q9H2X6 whole entry): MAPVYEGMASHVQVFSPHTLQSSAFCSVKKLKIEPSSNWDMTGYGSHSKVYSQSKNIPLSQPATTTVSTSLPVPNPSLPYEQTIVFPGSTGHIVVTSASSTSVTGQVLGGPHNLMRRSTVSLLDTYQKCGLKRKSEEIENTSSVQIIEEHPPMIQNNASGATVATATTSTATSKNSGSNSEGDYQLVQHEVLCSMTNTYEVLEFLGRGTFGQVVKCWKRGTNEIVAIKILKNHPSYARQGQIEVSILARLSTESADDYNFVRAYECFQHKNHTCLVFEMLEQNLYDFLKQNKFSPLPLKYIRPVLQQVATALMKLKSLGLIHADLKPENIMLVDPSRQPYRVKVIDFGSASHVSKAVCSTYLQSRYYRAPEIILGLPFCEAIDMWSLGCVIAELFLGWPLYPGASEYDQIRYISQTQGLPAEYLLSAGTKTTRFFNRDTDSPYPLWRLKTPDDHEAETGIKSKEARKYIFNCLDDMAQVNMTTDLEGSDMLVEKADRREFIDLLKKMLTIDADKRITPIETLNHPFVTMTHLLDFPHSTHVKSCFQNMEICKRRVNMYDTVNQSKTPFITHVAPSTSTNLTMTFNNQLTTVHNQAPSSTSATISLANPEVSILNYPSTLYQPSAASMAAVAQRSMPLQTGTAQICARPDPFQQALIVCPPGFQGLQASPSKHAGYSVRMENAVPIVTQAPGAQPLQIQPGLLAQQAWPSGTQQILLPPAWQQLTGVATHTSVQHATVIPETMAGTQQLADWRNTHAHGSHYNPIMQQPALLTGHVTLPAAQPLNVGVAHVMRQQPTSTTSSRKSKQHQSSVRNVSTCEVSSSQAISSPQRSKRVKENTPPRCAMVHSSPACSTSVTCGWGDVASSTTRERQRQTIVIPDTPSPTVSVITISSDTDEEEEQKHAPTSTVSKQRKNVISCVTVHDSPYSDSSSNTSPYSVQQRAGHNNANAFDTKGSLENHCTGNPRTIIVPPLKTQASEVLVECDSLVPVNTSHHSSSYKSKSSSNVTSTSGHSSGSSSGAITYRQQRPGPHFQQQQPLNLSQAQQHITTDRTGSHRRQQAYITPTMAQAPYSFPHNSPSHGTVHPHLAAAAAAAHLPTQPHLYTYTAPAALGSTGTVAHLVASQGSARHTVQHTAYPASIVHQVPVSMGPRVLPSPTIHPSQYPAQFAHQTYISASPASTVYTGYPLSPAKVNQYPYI
Sequence of JNK1 (P45983 whole entry): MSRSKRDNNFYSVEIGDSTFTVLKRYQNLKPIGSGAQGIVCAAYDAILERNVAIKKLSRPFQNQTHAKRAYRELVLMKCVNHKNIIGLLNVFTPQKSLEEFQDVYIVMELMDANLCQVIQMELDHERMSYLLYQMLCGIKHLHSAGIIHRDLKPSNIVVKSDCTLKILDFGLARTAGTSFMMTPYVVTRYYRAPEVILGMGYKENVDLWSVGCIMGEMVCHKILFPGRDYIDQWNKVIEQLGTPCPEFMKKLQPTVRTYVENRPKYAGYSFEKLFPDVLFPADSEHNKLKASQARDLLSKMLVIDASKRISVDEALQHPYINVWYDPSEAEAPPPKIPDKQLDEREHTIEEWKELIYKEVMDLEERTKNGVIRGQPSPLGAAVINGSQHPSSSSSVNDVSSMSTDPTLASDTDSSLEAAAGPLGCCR
Sequence of PLK1 (P53350 whole entry): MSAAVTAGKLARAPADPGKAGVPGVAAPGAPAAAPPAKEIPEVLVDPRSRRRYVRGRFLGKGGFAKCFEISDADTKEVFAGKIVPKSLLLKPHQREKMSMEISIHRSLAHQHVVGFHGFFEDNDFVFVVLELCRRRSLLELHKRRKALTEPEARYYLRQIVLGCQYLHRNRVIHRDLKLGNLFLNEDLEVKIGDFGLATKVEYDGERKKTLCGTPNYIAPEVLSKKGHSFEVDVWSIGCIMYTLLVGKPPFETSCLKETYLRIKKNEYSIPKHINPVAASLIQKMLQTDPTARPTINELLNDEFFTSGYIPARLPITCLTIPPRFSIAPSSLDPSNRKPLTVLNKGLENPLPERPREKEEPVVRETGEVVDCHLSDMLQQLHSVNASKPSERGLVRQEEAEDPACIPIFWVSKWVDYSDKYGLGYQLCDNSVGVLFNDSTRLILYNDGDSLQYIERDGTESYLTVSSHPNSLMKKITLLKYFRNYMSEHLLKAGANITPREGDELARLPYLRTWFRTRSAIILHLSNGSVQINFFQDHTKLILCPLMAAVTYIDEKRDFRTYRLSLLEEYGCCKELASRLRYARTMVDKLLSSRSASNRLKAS

Structure (SMILES): C[C@H](c1ccccc1)n1c(=O)[nH]c2ncc(-c3ccccc3)nc21 [Compound 14, (R)-6-Phenyl-1-(1-phenylethyl)-1H-imidazo[4,5-b]pyrazin-2(3H)-one]
- remaining activity at 10 µM (GSK3b): 66%
- remaining activity at 10 µM (HIPK2): 80%
- remaining activity at 10 µM (BRSK2): 72%
- remaining activity at 10 µM (BTK): 97%
- remaining activity at 10 µM (DYRK1A): 85%
- remaining activity at 10 µM (JNK1): 97%
- remaining activity at 10 µM (PAK5): 80%
- remaining activity at 10 µM (PKC zeta): 88%
- remaining activity at 10 µM (ERK8): 79%
- remaining activity at 10 µM (PLK1): 104%
- remaining activity at 10 µM (PKA): 72%
- remaining activity at 10 µM (SmMLCK): 64%
- remaining activity at 10 µM (CDK2-Cyclin A): 84%
- remaining activity at 10 µM (S6K1): 65%

Structure (SMILES): CC(c1ccccc1)n1c(=O)[nH]c2ncc(-c3ccc(F)cc3)nc21 (centres unmarked) [Compound 1]
- remaining activity at 10 µM (GSK3b): 63%
- remaining activity at 10 µM (HIPK2): 101%
- remaining activity at 10 µM (BRSK2): 82%
- remaining activity at 10 µM (BTK): 113%
- remaining activity at 10 µM (DYRK1A): 79%
- remaining activity at 10 µM (JNK1): 95%
- remaining activity at 10 µM (PAK5): 84%
- remaining activity at 10 µM (PKC zeta): 94%
- remaining activity at 10 µM (ERK8): 73%
- remaining activity at 10 µM (PLK1): 111%
- remaining activity at 10 µM (PKA): 87%
- remaining activity at 10 µM (SmMLCK): 80%
- remaining activity at 10 µM (CDK2-Cyclin A): 89%
- remaining activity at 10 µM (S6K1): 81%

Structure (SMILES): O=c1[nH]c2ncc(-c3ccc(F)cc3)nc2n1CC1CC1 [Compound 10]
- remaining activity at 10 µM (GSK3b): 37%
- remaining activity at 10 µM (HIPK2): 69%
- remaining activity at 10 µM (BRSK2): 90%
- remaining activity at 10 µM (BTK): 104%
- remaining activity at 10 µM (DYRK1A): 113%
- remaining activity at 10 µM (JNK1): 100%
- remaining activity at 10 µM (PAK5): 95%
- remaining activity at 10 µM (PKC zeta): 90%
- remaining activity at 10 µM (ERK8): 70%
- remaining activity at 10 µM (PLK1): 102%
- remaining activity at 10 µM (PKA): 93%
- remaining activity at 10 µM (SmMLCK): 74%
- remaining activity at 10 µM (CDK2-Cyclin A): 82%
- remaining activity at 10 µM (S6K1): 92%

Structure (SMILES): O=c1[nH]c2ncc(-c3ccc(F)cc3)nc2n1C1CCCCC1 [Compound 12, 1-Cyclohexyl-6-(4-fluorophenyl)-1H-imidazo[4,5-b]pyrazin-2(3H)-one]
- remaining activity at 10 µM (GSK3b): 70%
- remaining activity at 10 µM (HIPK2): 97%
- remaining activity at 10 µM (BRSK2): 100%
- remaining activity at 10 µM (BTK): 111%
- remaining activity at 10 µM (DYRK1A): 93%
- remaining activity at 10 µM (JNK1): 95%
- remaining activity at 10 µM (PAK5): 100%
- remaining activity at 10 µM (PKC zeta): 90%
- remaining activity at 10 µM (ERK8): 80%
- remaining activity at 10 µM (PLK1): 117%
- remaining activity at 10 µM (PKA): 95%
- remaining activity at 10 µM (SmMLCK): 89%
- remaining activity at 10 µM (CDK2-Cyclin A): 84%
- remaining activity at 10 µM (S6K1): 97%
